Results published in patent US10220548B2, “Humidity activated formulation for volatile compounds” (AgroFresh, Inc., priority 2013, dated 2019).

Legend:
[1] = Analysis of release of trans-2-hexenal or guaiacol from coating into headspace at 95% RH; assay type: physicochemical; settings: PVOH coating strip, room temperature/95% RH
Procedure: (§1) Analysis of Release of trans-2-hexenal or guaiacol from Coating into Headspace: A strip of approximately 13.6 cm^2 is cut from the middle of the coated PET sheet. The coating is peeled off the PET backer and then placed in a petri-dish in a fume-hood overnight to allow any residual non-encapsulated active to evaporate. A GC vial, 20 mL, with a screw-on septum-cap is prepared at 95% humidity by adding a mini plastic ultracentrifuge vial with the cap cut off containing approximately 0.20 g of saturated potassium nitrate (KNO3) solution, with a few grains of solid KNO3 added to maintain saturation. After allowing time (at least 2 hours) for the humidity in the vial to equilibrate, the strip of coating is added to the GC vial, and the vial immediately sealed. After allowing the desired amount of time for release of the active from the coating, a headspace sample is removed by syringe for injection into the GC column. The concentration in the Headspace is determined by comparing the GC Peak Area of the sample to the GC Peak Area of the headspace from a vial containing 0.5 mL of pure trans-2-hexenal, or guaiacol.

[2] = Vapor pressure and saturated headspace concentration of pure reference compound; assay type: physicochemical; settings: for saturated headspace concentration of reference samples: pure compound 0.5 mL in vial, calculated from known vapor pressures at room temperature
Procedure: The strips of coating are then placed inside GC headspace vials (20 mL). In some cases a droplet of water (0.10 mL) is added to the bottom of the vial (avoiding contact with the strip) before the vial is sealed, in order to generate an atmosphere of 100% relative humidity (RH).
as §1

[3] = Quantification of amount of active in coating by GC; assay type: physicochemical; settings: PVOH/active/SDS coating; for % Incorporated active (compared to theoretical maximum amount): theoretical maximum 25 wt. % of active
Procedure: The coating is peeled off the PET backer and then placed in a petri-dish in a fume-hood overnight to allow any residual non-encapsulated active to evaporate. The following day, the delaminated coating is precisely weighed into a 20 mL GC vial. 5.0 grams of DI water is added, and the vial immediately sealed. The contents of the vial are gently swirled to dissolve the coating in the water, and at least 10 hours are allowed for the headspace to equilibrate with the aqueous phase. A headspace sample is then removed by syringe for injection into the GC column.

[4] = at 25° C.; known value; cited from earlier work

| SMILES | Concentration of guaiacol in headspace (ppm) ([1]; 0.62 hours after strip inserted into GC vial) | Concentration of guaiacol in headspace (ppm) ([1]; 1.2 hours) | Concentration of guaiacol in headspace (ppm) ([1]; 1.75 hours) | Concentration of guaiacol in headspace (ppm) ([1]; 3.52 hours) | Concentration of guaiacol in headspace (ppm) ([1]; 23.75 hours) | saturated headspace concentration of reference samples [2] | Absolute amount of active incorporated (wt. %) [3] [% wt. %] | % Incorporated active (compared to theoretical maximum amount) [3] [%] | vapor pressure [4] [kPa] | saturated concentration in the headspace of reference vial ([2]; pure compound 0.50 mL in vial, calculated from known vapor pressure at 25° C.) [ppm] | Concentration of trans-2-hexenal in headspace (ppm) ([1]; 0.17 hours after strip inserted into GC vial) | Concentration of trans-2-hexenal in headspace (ppm) ([1]; 0.70 hours) | Concentration of trans-2-hexenal in headspace (ppm) ([1]; 1.25 hours) | Concentration of trans-2-hexenal in headspace (ppm) ([1]; 1.78 hours) | Concentration of trans-2-hexenal in headspace (ppm) ([1]; 2.33 hours) | Concentration of trans-2-hexenal in headspace (ppm) ([1]; 2.87 hours) | Concentration of trans-2-hexenal in headspace (ppm) ([1]; 3.42 hours) | Concentration of trans-2-hexenal in headspace (ppm) ([1]; 4.52 hours) | Concentration of trans-2-hexenal in headspace (ppm) ([1]; 17.77 hours) |
| --- | --- | --- | --- | --- | --- | --- | --- | --- | --- | --- | --- | --- | --- | --- | --- | --- | --- | --- | --- |
| COc1ccccc1O [Guaiacol, guaiacol] | 76.17 | 81.90 | 80.20 | 82.55 | 89.52 | 145 ppm (V/V) | 17.2 | 68.7 |  |  |  |  |  |  |  |  |  |  |  |
| CCCCCCO [Formulation 1-Hexanol, 1-hexanol] |  |  |  |  |  |  |  | 75.0 | 0.124 | 1224 |  |  |  |  |  |  |  |  |  |
| CCC/C=C/C=O [Trans-2-hexenal, trans-2-hexenal] |  |  |  |  |  | 8685 ppm (V/V) | 18.0 | 71.9 |  |  | 350.60 | 589.45 | 1266.50 | 2036.63 | 3484.15 | 4541.25 | 6173.40 | 7357.28 | 6742.25 |
